Measurements published in ChEMBL document CHEMBL4402605, “A Chemical Switch for Transforming a Purine Agonist for Toll-like Receptor 7 to a Clinically Relevant Antagonist” (J Med Chem, 2020).
The source made the active and inactive calls. No cut-off for these calls is given here.

What was measured:
[1] = Apparent permeability across apical to basal side in human Caco2 cells at 10 uM measured after 120 mins by LC-MS/MS analysis; conditions: Caco-2
[2] = Toxicity in C57BL/6 mouse assessed as capsular space obliteration at 15 mg/kg, po administered once daily via gavage for 7 consecutive days and measured post-last dose by H and E staining based histomorphological analysis; type: organism-based; conditions: in vivo
Mus musculus [3] = test: (§1) Protection against imiquimod-induced C57BL/6 mouse model of psoriasis assessed as suppression of vascular dilatation at 15 mg/kg, po administered via gavage treated 1 day prior to imiquimod application and subsequent daily dosing for 7 consecutive days and measured post-last dose by H and E staining based histopathological analysis; type: functional
Mus musculus [4] = test: as §1, with “hyperkeratosis” for “vascular dilatation”; type: functional
Mus musculus [5] = test: as §1, with “spongiosis” for “vascular dilatation”; type: functional
[6] = Toxicity in C57BL/6 mouse assessed as physiological abnormalities at 15 mg/kg, po administered once daily via gavage for 7 consecutive days and measured post-last dose by H and E staining based histomorphological analysis; type: organism-based; conditions: in vivo
Mus musculus [7] = test: as §1, with “reduction in MX2 mRNA expression” for “suppression of vascular dilatation”, “SYBR green dye” for “H and E staining”, “qPCR” for “histopathological”; type: functional, organism-based
[8] = Toxicity in C57BL/6 mouse assessed as change in lung microanatomy at 15 mg/kg, po administered once daily via gavage for 7 consecutive days and measured post-last dose by H and E staining based histomorphological analysis; type: organism-based; conditions: in vivo
[9] = Toxicity in C57BL/6 mouse assessed as glomerular hypertrophy at 15 mg/kg, po administered once daily via gavage for 7 consecutive days and measured post-last dose by H and E staining based histomorphological analysis; type: organism-based; conditions: in vivo
[10] = target: T1, Toll-like receptor 7 (Homo sapiens) (UniProt Q9NYK1); test: Antagonist activity at human TLR7 expressed in HEK-Blue cells assessed as inhibition of CL264-induced IL-6 mRNA expression at 5 uM preincubated for 1 hr followed by CL264 stimulation and measured after 6 hrs by SYBR green dye based RT-PCR analysis relative to control; type: cell-based
T1 sequence (whole entry): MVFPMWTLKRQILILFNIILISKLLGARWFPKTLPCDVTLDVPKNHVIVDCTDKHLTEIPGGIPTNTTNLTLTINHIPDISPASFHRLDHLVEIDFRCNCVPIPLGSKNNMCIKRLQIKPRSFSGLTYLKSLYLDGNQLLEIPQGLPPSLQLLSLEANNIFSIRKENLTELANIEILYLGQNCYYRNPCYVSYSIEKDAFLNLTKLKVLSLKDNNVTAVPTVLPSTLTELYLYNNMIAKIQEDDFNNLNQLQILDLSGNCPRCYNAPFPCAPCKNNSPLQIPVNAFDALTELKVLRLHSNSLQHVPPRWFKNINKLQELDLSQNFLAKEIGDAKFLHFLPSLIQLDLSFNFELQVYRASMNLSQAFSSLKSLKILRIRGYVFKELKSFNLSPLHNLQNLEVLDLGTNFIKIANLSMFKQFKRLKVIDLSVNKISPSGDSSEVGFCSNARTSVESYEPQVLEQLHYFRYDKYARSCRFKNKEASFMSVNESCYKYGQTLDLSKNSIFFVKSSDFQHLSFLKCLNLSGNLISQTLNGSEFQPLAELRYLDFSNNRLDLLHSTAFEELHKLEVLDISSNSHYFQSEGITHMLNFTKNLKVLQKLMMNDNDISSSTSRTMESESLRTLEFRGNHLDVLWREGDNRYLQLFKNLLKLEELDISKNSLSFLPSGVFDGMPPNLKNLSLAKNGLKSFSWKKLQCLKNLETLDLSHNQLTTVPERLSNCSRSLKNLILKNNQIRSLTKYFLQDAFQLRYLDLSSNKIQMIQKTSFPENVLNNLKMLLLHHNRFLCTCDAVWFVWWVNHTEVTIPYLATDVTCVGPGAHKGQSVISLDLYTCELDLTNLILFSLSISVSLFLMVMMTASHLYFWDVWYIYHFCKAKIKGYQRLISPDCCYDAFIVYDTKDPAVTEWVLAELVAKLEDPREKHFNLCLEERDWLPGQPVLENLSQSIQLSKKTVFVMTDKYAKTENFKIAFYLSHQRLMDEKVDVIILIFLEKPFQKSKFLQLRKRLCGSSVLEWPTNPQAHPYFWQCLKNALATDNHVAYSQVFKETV

**Q.** With CCN1CCN(CCCn2cnc3c(N4CCN(CC)CC4)ncnc32)CC1 as the compound, how does the Papp A→B at 2 h, 10 µM [1] read?
**A.** Its Papp A→B at 2 h, 10 µM is 3.57 ×10⁻⁶ cm/s.

**Q.** What about the Activity [2] of the same compound?
**A.** The Activity was “Non-Toxic”.

**Q.** And the Activity (Mus musculus [3])?
**A.** The Activity was 100%.

**Q.** And the Activity (Mus musculus [4])?
**A.** Its Activity is 100%.

**Q.** What about the Activity (Mus musculus [5]) of the same compound?
**A.** Its Activity is 100%.

**Q.** What about the Activity [6] of the same compound?
**A.** The Activity was “Non-Toxic”.

**Q.** And the Activity (Mus musculus [7])?
**A.** The Activity was “Active”.

**Q.** And the Activity [8]?
**A.** Its Activity is “Non-Toxic”.

**Q.** And the Activity [9]?
**A.** Its Activity is “Non-Toxic”.

**Q.** What about the inhibition [10] of the same compound?
**A.** The inhibition was 42.9%.
